Experimental data: patent US20220000875A1, “TOPICAL COMPOSITIONS COMPRISING PENTOXIFYLLINE AND METHODS OF TREATMENT USING THE SAME” (priority 2018, published 2022)

Tests used:
[1] = Adverse events in the randomized, open-label clinical study; conditions: adverse event
Procedure: (§1) A randomized, open-label, proof-of-concept clinical study was conducted under an FDA Investigational New Drug Application (IND). […] The CLC was administered orally as a pill and dosed as determined by the subject's physician. No less than every 48 hours, subjects' ulcers were photographed and examined using digital image processing to determine ulcer area, over a period of 14 days, which include daily collection of adverse events, ulcer number, and pain scores.
(§2) Inclusion criteria required the recent (<2 days) appearance of a new oral ulcer. Patients on immunosuppressant therapies were excluded from the study.
All adverse events were reviewed in real time by the treating physician investigator.

[2] = system: oral ulcers of BD patients; experiment: Randomized, open-label, proof-of-concept clinical study of topical PTX muco-adherent gel: oral ulcer healing, ulcer number, pain; assay type: in vivo, human
Procedure: as §1, §2
Patients were contacted daily for 14 consecutive days and were examined in-person no less than every 48 hours except for weekends. On the first day of entry into the study, the largest ulcer was identified and photographed as the “index ulcer”; its location was recorded and it was subsequently photographed at every in-person visit. Photographs were made with a paper ruler showing millimeter graduations lain in the same plane as the ulcer itself. Graphical processing software was used to compute the ulcer area in square millimeters; this software was calibrated from the paper ruler image and required drawing a line around the image of the ulcer margin.
Then, the proportion of patients with undetectable index ulcer (defined as those with an ulcer area of less than 1 mm^2) at day 4 was compared. Lastly, the trend in mean ulcer area over 14 days was compared as well as the results' sensitivity to outliers.
The total number of oral ulcers were also counted at each in-person visit, and the daily average number of oral ulcers were calculated during the treatment period.
The average day zero pain score for each treatment group was normalized to 100%. Then for each treatment group averages were plotted for succeeding days as a percentage of the first day's pain score average.

[3] = cited from earlier work
[4] = interpreted as dermal manifestations of BD
[5] = day 2 of treatment, PTX+CLC n = 18, CLC n = 21

| Compound | Dysgeusia, % of patients [1] [%] | Dysgeusia, number of patients [1] | Nausea, % of patients [1] [%] | Nausea, number of patients [1] | Vomiting, number of patients [1] | limited dermal rashes, % of patients [1, 4] [%] | limited dermal rashes, number of patients [1, 4] | Day 2 Growth/Shrinkage - Patients with Index Ulcer Growth, % [2, 5] [%] | Day 2 Growth/Shrinkage - Patients with Index Ulcer Growth, Number [2, 5] | Day 2 Growth/Shrinkage - Patients with Index Ulcer Shrinkage, % [2, 5] [%] | Day 2 Growth/Shrinkage - Patients with Index Ulcer Shrinkage, Number [2, 5] | Day 4 Clearance - Patients with Remaining Ulcers, % ([2]; day 4, PTX+CLC n = 18, CLC n = 21) [%] | Day 4 Clearance - Patients with Undetectable Ulcers, % ([2]; day 4, undetectable = ulcer area of less than 1 mm^2, PTX+CLC n = 18, CLC n = 21) [%] | mean index ulcer area by treatment group (trend) ([2]; over 14 days, FIG. 1) | daily average number of oral ulcers during the treatment phase ([2]; two weeks of treatment) | plasma levels of metabolite relative to PTX [3] |
| --- | --- | --- | --- | --- | --- | --- | --- | --- | --- | --- | --- | --- | --- | --- | --- | --- |
| COc1cc2c(c(OC)c1OC)-c1ccc(OC)c(=O)cc1[C@@H](NC(C)=O)CC2 [CLC, colchicine] | 0 | 0 | 10 | 2 | none | 29 | 6 | 80 | 16 | 19 | 4 | 71 | 29 | first growing then slowly decreasing | 1.89+/−1.36 |  |
| CC(O)CCCCn1c(=O)c2c(ncn2C)n(C)c1=O (centres unmarked) [Metabolite 1, 1-[5-hydroxyhexyl]-3,7-dimethylxanthine] |  |  |  |  |  |  |  |  |  |  |  |  |  |  |  | five |
| Cn1cnc2c1c(=O)n(CCCC(=O)O)c(=O)n2C [Metabolite V, 1-[3-carboxypropyl]-3,7-dimethylxanthine] |  |  |  |  |  |  |  |  |  |  |  |  |  |  |  | eight |
